Source: the kinase profiling compilation of Christmann-Franck et al. (2016)

Target: ABL2 (human) (UniProt P42684)
Experiment: radiometric filter-binding kinase assay, Kinase HotSpot
Conditions: compound 0.5 µM; ATP 10 µM

| Structure (SMILES) | residual activity [%] |
| --- | --- |
| COc1cc2ncnc(Nc3ccc(O)c(Br)c3)c2cc1OC | 58.4 |
| CCOc1cc2ncnc(Nc3cccc(Br)c3)c2cc1OCC | 52.1 |
| N#C/C(=C1/Nc2ccccc2S1)c1ccnc(NCCc2cccnc2)n1 | 98.8 |
| O=C1NC(=O)c2c1c1c3ccccc3[nH]c1c1[nH]c3cc(Br)ccc3c21 | 93.8 |

Target: RPS6KA6 KD1 KD2 (human) (UniProt Q9UK32)
Experiment: as above
Conditions: compound 0.5 µM; ATP 10 µM

Chain of RPS6KA6 KD1 KD2 (human) (Q9UK32 whole entry, looked up): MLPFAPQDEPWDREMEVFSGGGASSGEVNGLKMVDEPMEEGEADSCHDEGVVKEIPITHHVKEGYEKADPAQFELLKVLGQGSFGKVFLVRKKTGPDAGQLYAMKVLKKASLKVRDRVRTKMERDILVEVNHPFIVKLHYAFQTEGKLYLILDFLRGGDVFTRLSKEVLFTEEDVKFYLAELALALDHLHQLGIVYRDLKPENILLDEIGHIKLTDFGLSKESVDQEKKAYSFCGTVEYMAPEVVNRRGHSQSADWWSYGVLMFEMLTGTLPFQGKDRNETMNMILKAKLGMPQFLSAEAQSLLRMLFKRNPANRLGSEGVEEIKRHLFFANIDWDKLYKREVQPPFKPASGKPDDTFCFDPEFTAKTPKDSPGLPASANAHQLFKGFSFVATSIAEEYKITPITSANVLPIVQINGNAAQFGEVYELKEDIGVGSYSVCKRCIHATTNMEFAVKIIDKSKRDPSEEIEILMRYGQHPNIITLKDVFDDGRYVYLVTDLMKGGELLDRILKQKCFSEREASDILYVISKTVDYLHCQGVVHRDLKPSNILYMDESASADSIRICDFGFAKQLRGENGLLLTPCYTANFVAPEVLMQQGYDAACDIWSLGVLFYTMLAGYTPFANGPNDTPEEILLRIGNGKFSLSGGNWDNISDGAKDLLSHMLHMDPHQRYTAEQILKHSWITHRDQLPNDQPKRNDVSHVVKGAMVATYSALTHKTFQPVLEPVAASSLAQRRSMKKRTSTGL

| Structure (SMILES) | residual activity [%] |
| --- | --- |
| COc1cc2ncnc(Nc3ccc(O)c(Br)c3)c2cc1OC | 57.8 |
| CCOc1cc2ncnc(Nc3cccc(Br)c3)c2cc1OCC | 93.3 |
| N#C/C(=C1/Nc2ccccc2S1)c1ccnc(NCCc2cccnc2)n1 | 87 |
| O=C1NC(=O)c2c1c1c3ccccc3[nH]c1c1[nH]c3cc(Br)ccc3c21 | 32.4 |

System: SGK1 (human), O00141 [S422D]
Experiment: as above
Conditions: compound 0.5 µM; ATP 10 µM

| Structure (SMILES) | residual activity [%] |
| --- | --- |
| COc1cc2ncnc(Nc3ccc(O)c(Br)c3)c2cc1OC | 95.7 |
| CCOc1cc2ncnc(Nc3cccc(Br)c3)c2cc1OCC | 120 |
| N#C/C(=C1/Nc2ccccc2S1)c1ccnc(NCCc2cccnc2)n1 | 100 |
| O=C1NC(=O)c2c1c1c3ccccc3[nH]c1c1[nH]c3cc(Br)ccc3c21 | 47.6 |

Target: STK16 (human) (UniProt O75716)
Experiment: as above
Conditions: compound 0.5 µM; ATP 10 µM

Chain of STK16 (human) (O75716 whole entry, looked up): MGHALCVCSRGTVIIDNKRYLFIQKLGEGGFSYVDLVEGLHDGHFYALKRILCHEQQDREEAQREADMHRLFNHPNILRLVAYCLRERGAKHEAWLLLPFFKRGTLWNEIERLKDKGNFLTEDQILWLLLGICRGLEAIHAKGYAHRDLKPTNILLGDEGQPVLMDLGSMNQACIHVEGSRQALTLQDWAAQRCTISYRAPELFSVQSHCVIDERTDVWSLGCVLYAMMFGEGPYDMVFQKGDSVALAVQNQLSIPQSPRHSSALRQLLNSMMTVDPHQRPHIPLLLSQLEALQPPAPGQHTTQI

| Structure (SMILES) | residual activity [%] |
| --- | --- |
| COc1cc2ncnc(Nc3ccc(O)c(Br)c3)c2cc1OC | 104 |
| CCOc1cc2ncnc(Nc3cccc(Br)c3)c2cc1OCC | 98.4 |
| N#C/C(=C1/Nc2ccccc2S1)c1ccnc(NCCc2cccnc2)n1 | 79.2 |
| O=C1NC(=O)c2c1c1c3ccccc3[nH]c1c1[nH]c3cc(Br)ccc3c21 | 87.2 |

Target: AKT3 (human) (UniProt Q9Y243)
Experiment: as above
Conditions: compound 0.5 µM; ATP 10 µM

| Structure (SMILES) | residual activity [%] |
| --- | --- |
| COc1cc2ncnc(Nc3ccc(O)c(Br)c3)c2cc1OC | 101 |
| CCOc1cc2ncnc(Nc3cccc(Br)c3)c2cc1OCC | 104 |
| N#C/C(=C1/Nc2ccccc2S1)c1ccnc(NCCc2cccnc2)n1 | 105 |
| O=C1NC(=O)c2c1c1c3ccccc3[nH]c1c1[nH]c3cc(Br)ccc3c21 | 91.1 |

Target: GRK6 (human) (UniProt P43250)
Experiment: as above
Conditions: compound 0.5 µM; ATP 10 µM

| Structure (SMILES) | residual activity [%] |
| --- | --- |
| COc1cc2ncnc(Nc3ccc(O)c(Br)c3)c2cc1OC | 104 |
| CCOc1cc2ncnc(Nc3cccc(Br)c3)c2cc1OCC | 96 |
| N#C/C(=C1/Nc2ccccc2S1)c1ccnc(NCCc2cccnc2)n1 | 87.6 |
| O=C1NC(=O)c2c1c1c3ccccc3[nH]c1c1[nH]c3cc(Br)ccc3c21 | 108 |

Target: TAOK1 (human) (UniProt Q7L7X3)
Experiment: as above
Conditions: compound 0.5 µM; ATP 10 µM

| Structure (SMILES) | residual activity [%] |
| --- | --- |
| COc1cc2ncnc(Nc3ccc(O)c(Br)c3)c2cc1OC | 93.3 |
| CCOc1cc2ncnc(Nc3cccc(Br)c3)c2cc1OCC | 99.9 |
| N#C/C(=C1/Nc2ccccc2S1)c1ccnc(NCCc2cccnc2)n1 | 98 |
| O=C1NC(=O)c2c1c1c3ccccc3[nH]c1c1[nH]c3cc(Br)ccc3c21 | 68.4 |

Target: CDC42BPA (human) (UniProt Q5VT25)
Experiment: as above
Conditions: compound 0.5 µM; ATP 10 µM

| Structure (SMILES) | residual activity [%] |
| --- | --- |
| COc1cc2ncnc(Nc3ccc(O)c(Br)c3)c2cc1OC | 96.9 |
| CCOc1cc2ncnc(Nc3cccc(Br)c3)c2cc1OCC | 85.4 |
| N#C/C(=C1/Nc2ccccc2S1)c1ccnc(NCCc2cccnc2)n1 | 99.6 |
| O=C1NC(=O)c2c1c1c3ccccc3[nH]c1c1[nH]c3cc(Br)ccc3c21 | 97.5 |

Target: CDK7 CCNH MNAT1 (human) (UniProt P50613+P51948+P51946)
Experiment: as above
Conditions: compound 0.5 µM; ATP 10 µM

| Structure (SMILES) | residual activity [%] |
| --- | --- |
| COc1cc2ncnc(Nc3ccc(O)c(Br)c3)c2cc1OC | 97 |
| CCOc1cc2ncnc(Nc3cccc(Br)c3)c2cc1OCC | 93 |
| N#C/C(=C1/Nc2ccccc2S1)c1ccnc(NCCc2cccnc2)n1 | 93.2 |
| O=C1NC(=O)c2c1c1c3ccccc3[nH]c1c1[nH]c3cc(Br)ccc3c21 | 93.1 |

Target: PIM2 (human) (UniProt Q9P1W9)
Experiment: as above
Conditions: compound 0.5 µM; ATP 10 µM

Chain of PIM2 (human) (Q9P1W9 whole entry, looked up): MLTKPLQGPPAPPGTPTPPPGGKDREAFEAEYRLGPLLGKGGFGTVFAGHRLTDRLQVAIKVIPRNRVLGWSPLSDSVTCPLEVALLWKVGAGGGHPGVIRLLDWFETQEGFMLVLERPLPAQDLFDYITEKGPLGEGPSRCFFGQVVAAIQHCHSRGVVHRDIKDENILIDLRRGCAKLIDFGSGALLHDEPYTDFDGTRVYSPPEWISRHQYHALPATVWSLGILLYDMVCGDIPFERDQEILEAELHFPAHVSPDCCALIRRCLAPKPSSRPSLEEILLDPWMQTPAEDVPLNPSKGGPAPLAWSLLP

| Structure (SMILES) | residual activity [%] |
| --- | --- |
| COc1cc2ncnc(Nc3ccc(O)c(Br)c3)c2cc1OC | 94.1 |
| CCOc1cc2ncnc(Nc3cccc(Br)c3)c2cc1OCC | 98.9 |
| N#C/C(=C1/Nc2ccccc2S1)c1ccnc(NCCc2cccnc2)n1 | 91.2 |
| O=C1NC(=O)c2c1c1c3ccccc3[nH]c1c1[nH]c3cc(Br)ccc3c21 | 44.6 |

Target: MARK4 (human) (UniProt Q96L34)
Experiment: as above
Conditions: compound 0.5 µM; ATP 10 µM

Chain of MARK4 (human) (Q96L34 whole entry, looked up): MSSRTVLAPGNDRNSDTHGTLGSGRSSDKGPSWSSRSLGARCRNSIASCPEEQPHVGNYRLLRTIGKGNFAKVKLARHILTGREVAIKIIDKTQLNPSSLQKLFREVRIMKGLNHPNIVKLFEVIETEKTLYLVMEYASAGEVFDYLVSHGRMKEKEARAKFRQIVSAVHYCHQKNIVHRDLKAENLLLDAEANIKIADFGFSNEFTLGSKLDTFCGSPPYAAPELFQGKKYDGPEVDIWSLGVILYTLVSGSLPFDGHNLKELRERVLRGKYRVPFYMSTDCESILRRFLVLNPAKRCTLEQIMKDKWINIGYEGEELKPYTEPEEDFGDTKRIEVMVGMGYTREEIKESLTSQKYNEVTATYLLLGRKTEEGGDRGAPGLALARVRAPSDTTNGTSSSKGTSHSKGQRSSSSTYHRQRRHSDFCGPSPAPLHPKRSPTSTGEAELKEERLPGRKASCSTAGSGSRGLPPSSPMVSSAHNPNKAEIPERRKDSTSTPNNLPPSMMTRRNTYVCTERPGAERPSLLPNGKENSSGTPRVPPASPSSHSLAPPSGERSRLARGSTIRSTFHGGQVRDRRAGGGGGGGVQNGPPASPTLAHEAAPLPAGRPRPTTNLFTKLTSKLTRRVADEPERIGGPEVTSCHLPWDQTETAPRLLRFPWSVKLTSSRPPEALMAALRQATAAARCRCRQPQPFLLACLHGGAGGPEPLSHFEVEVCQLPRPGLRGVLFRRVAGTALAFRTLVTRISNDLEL

| Structure (SMILES) | residual activity [%] |
| --- | --- |
| COc1cc2ncnc(Nc3ccc(O)c(Br)c3)c2cc1OC | 92.4 |
| CCOc1cc2ncnc(Nc3cccc(Br)c3)c2cc1OCC | 99.2 |
| N#C/C(=C1/Nc2ccccc2S1)c1ccnc(NCCc2cccnc2)n1 | 91.6 |
| O=C1NC(=O)c2c1c1c3ccccc3[nH]c1c1[nH]c3cc(Br)ccc3c21 | 38.7 |

Target: SRC (human) (UniProt P12931)
Experiment: as above
Conditions: compound 0.5 µM; ATP 10 µM

Chain of SRC (human) (P12931 whole entry, looked up): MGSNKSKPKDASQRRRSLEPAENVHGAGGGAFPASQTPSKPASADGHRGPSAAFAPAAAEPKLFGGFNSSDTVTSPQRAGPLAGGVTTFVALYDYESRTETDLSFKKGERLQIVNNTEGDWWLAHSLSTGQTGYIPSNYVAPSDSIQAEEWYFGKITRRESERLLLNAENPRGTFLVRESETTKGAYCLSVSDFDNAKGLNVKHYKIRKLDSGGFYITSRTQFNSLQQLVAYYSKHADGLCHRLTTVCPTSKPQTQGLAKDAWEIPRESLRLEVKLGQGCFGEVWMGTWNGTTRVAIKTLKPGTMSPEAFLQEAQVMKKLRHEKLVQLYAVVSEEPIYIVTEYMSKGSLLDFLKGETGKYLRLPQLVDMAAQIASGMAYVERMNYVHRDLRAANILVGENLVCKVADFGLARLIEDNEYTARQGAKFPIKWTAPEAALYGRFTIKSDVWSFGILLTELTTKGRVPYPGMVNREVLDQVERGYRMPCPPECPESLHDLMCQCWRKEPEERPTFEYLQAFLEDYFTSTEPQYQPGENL

| Structure (SMILES) | residual activity [%] |
| --- | --- |
| COc1cc2ncnc(Nc3ccc(O)c(Br)c3)c2cc1OC | 77.5 |
| CCOc1cc2ncnc(Nc3cccc(Br)c3)c2cc1OCC | 74.8 |
| N#C/C(=C1/Nc2ccccc2S1)c1ccnc(NCCc2cccnc2)n1 | 86.8 |
| O=C1NC(=O)c2c1c1c3ccccc3[nH]c1c1[nH]c3cc(Br)ccc3c21 | 88.9 |

Target: TEC (human) (UniProt P42680)
Experiment: as above
Conditions: compound 0.5 µM; ATP 10 µM

Chain of TEC (human) (P42680 whole entry, looked up): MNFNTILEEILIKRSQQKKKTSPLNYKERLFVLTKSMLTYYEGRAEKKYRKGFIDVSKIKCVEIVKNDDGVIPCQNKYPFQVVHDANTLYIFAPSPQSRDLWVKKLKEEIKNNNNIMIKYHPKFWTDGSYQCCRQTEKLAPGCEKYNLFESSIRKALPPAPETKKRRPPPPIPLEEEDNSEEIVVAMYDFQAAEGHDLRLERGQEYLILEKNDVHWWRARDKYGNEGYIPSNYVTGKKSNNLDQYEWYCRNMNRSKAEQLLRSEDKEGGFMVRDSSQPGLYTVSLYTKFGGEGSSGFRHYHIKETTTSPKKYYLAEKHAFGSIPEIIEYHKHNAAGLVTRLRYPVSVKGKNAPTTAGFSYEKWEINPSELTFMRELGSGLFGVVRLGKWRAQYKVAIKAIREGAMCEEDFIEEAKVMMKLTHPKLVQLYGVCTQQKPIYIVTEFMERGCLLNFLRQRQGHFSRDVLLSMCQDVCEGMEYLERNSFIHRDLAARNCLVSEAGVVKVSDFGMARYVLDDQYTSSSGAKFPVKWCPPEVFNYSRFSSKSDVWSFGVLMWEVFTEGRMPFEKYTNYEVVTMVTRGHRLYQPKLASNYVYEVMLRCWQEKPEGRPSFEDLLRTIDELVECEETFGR

| Structure (SMILES) | residual activity [%] |
| --- | --- |
| COc1cc2ncnc(Nc3ccc(O)c(Br)c3)c2cc1OC | 108 |
| CCOc1cc2ncnc(Nc3cccc(Br)c3)c2cc1OCC | 120 |
| N#C/C(=C1/Nc2ccccc2S1)c1ccnc(NCCc2cccnc2)n1 | 104 |
| O=C1NC(=O)c2c1c1c3ccccc3[nH]c1c1[nH]c3cc(Br)ccc3c21 | 105 |

Target: EPHA5 (human) (UniProt P54756)
Experiment: as above
Conditions: compound 0.5 µM; ATP 10 µM

Chain of EPHA5 (human) (P54756 whole entry, looked up): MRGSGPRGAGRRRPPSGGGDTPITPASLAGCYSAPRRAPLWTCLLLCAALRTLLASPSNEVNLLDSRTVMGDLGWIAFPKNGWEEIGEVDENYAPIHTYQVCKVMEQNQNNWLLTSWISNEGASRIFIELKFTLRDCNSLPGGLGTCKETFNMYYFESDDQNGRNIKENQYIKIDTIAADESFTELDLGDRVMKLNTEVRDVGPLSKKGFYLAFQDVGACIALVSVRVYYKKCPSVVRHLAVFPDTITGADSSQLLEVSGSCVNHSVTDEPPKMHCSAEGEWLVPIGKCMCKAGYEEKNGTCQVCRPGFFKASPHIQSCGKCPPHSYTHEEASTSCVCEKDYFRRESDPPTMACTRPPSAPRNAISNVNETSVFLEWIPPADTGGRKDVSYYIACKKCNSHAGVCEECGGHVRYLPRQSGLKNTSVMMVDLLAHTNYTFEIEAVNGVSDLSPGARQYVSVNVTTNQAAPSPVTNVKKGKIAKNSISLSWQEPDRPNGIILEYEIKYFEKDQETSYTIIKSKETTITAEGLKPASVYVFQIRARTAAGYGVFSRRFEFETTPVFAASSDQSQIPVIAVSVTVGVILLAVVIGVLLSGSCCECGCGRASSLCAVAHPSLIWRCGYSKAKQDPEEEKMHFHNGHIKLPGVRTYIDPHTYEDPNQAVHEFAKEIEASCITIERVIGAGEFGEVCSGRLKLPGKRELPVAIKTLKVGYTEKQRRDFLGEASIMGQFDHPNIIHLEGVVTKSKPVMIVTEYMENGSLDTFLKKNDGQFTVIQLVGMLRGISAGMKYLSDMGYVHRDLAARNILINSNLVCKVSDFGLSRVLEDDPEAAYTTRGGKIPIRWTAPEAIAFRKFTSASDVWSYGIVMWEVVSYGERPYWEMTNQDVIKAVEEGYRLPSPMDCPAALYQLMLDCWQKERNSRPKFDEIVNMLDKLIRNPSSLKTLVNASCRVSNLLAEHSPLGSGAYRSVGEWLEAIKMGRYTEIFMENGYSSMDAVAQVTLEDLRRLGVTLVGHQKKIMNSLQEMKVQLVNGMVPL

| Structure (SMILES) | residual activity [%] |
| --- | --- |
| COc1cc2ncnc(Nc3ccc(O)c(Br)c3)c2cc1OC | 72.3 |
| CCOc1cc2ncnc(Nc3cccc(Br)c3)c2cc1OCC | 69.5 |
| N#C/C(=C1/Nc2ccccc2S1)c1ccnc(NCCc2cccnc2)n1 | 113 |
| O=C1NC(=O)c2c1c1c3ccccc3[nH]c1c1[nH]c3cc(Br)ccc3c21 | 90.5 |

Target: ADRBK2 (human) (UniProt P35626)
Experiment: as above
Conditions: compound 0.5 µM; ATP 10 µM

| Structure (SMILES) | residual activity [%] |
| --- | --- |
| COc1cc2ncnc(Nc3ccc(O)c(Br)c3)c2cc1OC | 103 |
| CCOc1cc2ncnc(Nc3cccc(Br)c3)c2cc1OCC | 93.8 |
| N#C/C(=C1/Nc2ccccc2S1)c1ccnc(NCCc2cccnc2)n1 | 99.1 |
| O=C1NC(=O)c2c1c1c3ccccc3[nH]c1c1[nH]c3cc(Br)ccc3c21 | 95.2 |

Target: CSNK2A2 (human) (UniProt P19784)
Experiment: as above
Conditions: compound 0.5 µM; ATP 10 µM

| Structure (SMILES) | residual activity [%] |
| --- | --- |
| COc1cc2ncnc(Nc3ccc(O)c(Br)c3)c2cc1OC | 89.2 |
| CCOc1cc2ncnc(Nc3cccc(Br)c3)c2cc1OCC | 93.8 |
| N#C/C(=C1/Nc2ccccc2S1)c1ccnc(NCCc2cccnc2)n1 | 27.1 |
| O=C1NC(=O)c2c1c1c3ccccc3[nH]c1c1[nH]c3cc(Br)ccc3c21 | 93.2 |

Target: MAPK12 (human) (UniProt P53778)
Experiment: as above
Conditions: compound 0.5 µM; ATP 10 µM

| Structure (SMILES) | residual activity [%] |
| --- | --- |
| COc1cc2ncnc(Nc3ccc(O)c(Br)c3)c2cc1OC | 92.8 |
| CCOc1cc2ncnc(Nc3cccc(Br)c3)c2cc1OCC | 105 |
| N#C/C(=C1/Nc2ccccc2S1)c1ccnc(NCCc2cccnc2)n1 | 96.7 |
| O=C1NC(=O)c2c1c1c3ccccc3[nH]c1c1[nH]c3cc(Br)ccc3c21 | 100 |

Target: NEK6 (human) (UniProt Q9HC98)
Experiment: as above
Conditions: compound 0.5 µM; ATP 10 µM

Chain of NEK6 (human) (Q9HC98 whole entry, looked up): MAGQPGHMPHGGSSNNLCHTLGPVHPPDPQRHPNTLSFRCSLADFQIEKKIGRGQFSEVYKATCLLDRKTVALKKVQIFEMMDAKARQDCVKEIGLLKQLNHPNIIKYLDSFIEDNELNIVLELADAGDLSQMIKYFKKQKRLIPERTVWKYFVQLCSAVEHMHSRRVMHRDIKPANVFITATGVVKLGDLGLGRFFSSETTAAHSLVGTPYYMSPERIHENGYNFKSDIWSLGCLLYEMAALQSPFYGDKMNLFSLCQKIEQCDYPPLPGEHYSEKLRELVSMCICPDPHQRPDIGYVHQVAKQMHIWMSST

| Structure (SMILES) | residual activity [%] |
| --- | --- |
| COc1cc2ncnc(Nc3ccc(O)c(Br)c3)c2cc1OC | 100 |
| CCOc1cc2ncnc(Nc3cccc(Br)c3)c2cc1OCC | 106 |
| N#C/C(=C1/Nc2ccccc2S1)c1ccnc(NCCc2cccnc2)n1 | 101 |
| O=C1NC(=O)c2c1c1c3ccccc3[nH]c1c1[nH]c3cc(Br)ccc3c21 | 104 |

Target: MAPK11 (human) (UniProt Q15759)
Experiment: as above
Conditions: compound 0.5 µM; ATP 10 µM

Chain of MAPK11 (human) (Q15759 whole entry, looked up): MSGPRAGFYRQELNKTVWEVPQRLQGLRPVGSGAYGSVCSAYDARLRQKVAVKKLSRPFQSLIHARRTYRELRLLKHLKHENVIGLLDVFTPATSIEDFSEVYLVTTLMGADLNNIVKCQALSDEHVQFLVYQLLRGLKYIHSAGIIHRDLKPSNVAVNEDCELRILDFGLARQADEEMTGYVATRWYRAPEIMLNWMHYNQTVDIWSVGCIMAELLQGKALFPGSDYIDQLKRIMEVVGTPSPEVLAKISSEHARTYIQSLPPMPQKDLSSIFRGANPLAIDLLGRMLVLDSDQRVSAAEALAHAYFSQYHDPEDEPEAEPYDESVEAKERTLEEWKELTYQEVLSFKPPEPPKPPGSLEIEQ

| Structure (SMILES) | residual activity [%] |
| --- | --- |
| COc1cc2ncnc(Nc3ccc(O)c(Br)c3)c2cc1OC | 90.1 |
| CCOc1cc2ncnc(Nc3cccc(Br)c3)c2cc1OCC | 89 |
| N#C/C(=C1/Nc2ccccc2S1)c1ccnc(NCCc2cccnc2)n1 | 101 |
| O=C1NC(=O)c2c1c1c3ccccc3[nH]c1c1[nH]c3cc(Br)ccc3c21 | 93.6 |

Target: CAMK1D (human) (UniProt Q8IU85)
Experiment: as above
Conditions: compound 0.5 µM; ATP 10 µM

| Structure (SMILES) | residual activity [%] |
| --- | --- |
| COc1cc2ncnc(Nc3ccc(O)c(Br)c3)c2cc1OC | 98.6 |
| CCOc1cc2ncnc(Nc3cccc(Br)c3)c2cc1OCC | 102 |
| N#C/C(=C1/Nc2ccccc2S1)c1ccnc(NCCc2cccnc2)n1 | 108 |
| O=C1NC(=O)c2c1c1c3ccccc3[nH]c1c1[nH]c3cc(Br)ccc3c21 | 92.2 |

Target: CSNK1E (human) (UniProt P49674)
Experiment: as above
Conditions: compound 0.5 µM; ATP 10 µM

| Structure (SMILES) | residual activity [%] |
| --- | --- |
| COc1cc2ncnc(Nc3ccc(O)c(Br)c3)c2cc1OC | 85.1 |
| CCOc1cc2ncnc(Nc3cccc(Br)c3)c2cc1OCC | 93.8 |
| N#C/C(=C1/Nc2ccccc2S1)c1ccnc(NCCc2cccnc2)n1 | 74.9 |
| O=C1NC(=O)c2c1c1c3ccccc3[nH]c1c1[nH]c3cc(Br)ccc3c21 | 82.2 |
